Values belong to the molecule of their own block, whether it stands above or below them.
Assays:
AR 1.0 cells [1] = assay: Potentiation of doxorubicin toxicity (fixed doxorubicin 0.86 μM, proliferation, sulphorhodamine B); type: cell-based, mouse
From the text: Compounds of formula (I) were examined for their ability to potentiate the toxicity of doxorubicin in AR 1.0 cells.

AR 1.0 cells [2] = assay: Drug accumulation assay (tritiated daunorubicin); type: cell-based; conditions: Mus musculus, read-out: IC50 accumulation
Method: AR 1.0 cells were seeded into 96 well opaque culture plates (Canberra Packard). The assay medium contained a mixture of tritiated Daunorubicin (DNR), a cytotoxic agent, and unlabelled DNR (0.3 μCi/ml; 2 μM). Compounds of formula I were serially diluted in assay medium over a range of concentrations from 5 nM to 100 μM. The cells were incubated at 37° C. for 1 hr before washing and determination of cell associated radioactivity. Results were expressed as % maximum accumulation where 100% accumulation is that observed in the presence of the known RMA verapamil at 100 μM. Where possible an IC50 was determined.

AR 1.0 cells [3] = assay: Compound toxicity (proliferation, sulphorhodamine B); type: cell-based; conditions: Mus musculus, 96 h, read-out: Compound toxicity (IC50)
AR 1.0 cells [4] = assay: Potentiation index for doxorubicin (doxorubicin titration with fixed concentration of compound); type: cell-based, mouse
Method: The EMT6 mouse mammary carcinoma cell line and the MDR resistant sublime AR 1.0 were cultured in RPMI 1640 medium containing 10% foetal calf serum and 2 mM glutamine at 37° C. in 5% CO2. Cells were passaged between 1 in 200 and 1 in 2000 in the case of the parental cell line and between 1 in 20 and 1 in 200 in the case of the MDR resistant subline, after trypsinisation (0.25% trypsin, 0.2 gl^-1, EDTA).
Cells were cultured for four days with a titration of doxorubicin (0.01 nm-50 μM) in the presence of a fixed concentration of each compound. Proliferation was quantified as described by Skehan et. al, loc cit. The IC50 (concentration required to reduce proliferation to 50% of the untreated controls) for doxorubicin alone and with each compound were derived and used to calculate the potentiation index (PI): [formula]

MDR cells = conditions: in vitro and in vivo; Cancer Res., 41, 1967-1972 (1981); cited from earlier work
[5] = with doxorubicin 0.86 μM, four day incubation, 5760 min, read-out: Toxicity with cytotoxic agent (IC50)
[6] = daunorubicin 2 μM, 1 hr at 37° C.
[7] = compound alone, AR 1.0 cells, four day incubation
[8] = RMA at 1 μM, doxorubicin, four days

IC50 (AR 1.0 cells [2]; [6]): 2000 nM
Compound: CN(CCNC(=O)c1cccc(/C=c2\[nH]c(=O)/c(=C/c3ccccc3)n(C)c2=O)c1)CC(c1ccccc1)c1ccccc1 [Compound 9163, N-(2-(2,2-Diphenylethyl)methylaminoethyl)-3-((3Z,6Z)-6-benzylidene-1-methyl-2,5-dioxo-3-piperazinylidene)methylbenzamide]
IC50 (AR 1.0 cells [1]; [5]): 500 nM | IC50 (AR 1.0 cells [3]; [7]): 10000 nM | Potentiation index (AR 1.0 cells [4]; [8]): 6.7

IC50 (AR 1.0 cells [2]; [6]): 900 nM
Compound: COc1cc2c(cc1OC)CN(CCNC(=O)c1cccc(/C=c3\[nH]c(=O)/c(=C/c4ccccc4)n(C)c3=O)c1)CC2 [Compound 9136, N-(2-(6,7-Dimethoxy-1,2,3,4-tetrahydro-2-isoquinolyl)ethyl)-3-((3Z,6Z)-6-benzylidene-1-methyl-2,5-dioxo-3-piperazinylidene)methylbenzamide]
IC50 (AR 1.0 cells [1]; [5]): 2000 nM | IC50 (AR 1.0 cells [3]; [7]): 13000 nM | Potentiation index (AR 1.0 cells [4]; [8]): 25

IC50 (AR 1.0 cells [2]; [6]): 350 nM
Compound: COc1cc2c(cc1OC)CN(CCc1ccc(C(=O)Nc3ccc(/C=c4\[nH]c(=O)/c(=C/c5ccccc5)n(C)c4=O)cc3)cc1)CC2 [Compound 9190, N-(4-((3Z,6Z)-6-Benzylidene-1-methyl-2,5-dioxo-3-piperazinylidene)methylphenyl)-4-(2-(6,7-dimethoxy-1,2,3,4-tetrahydro-2-isoquinolyl)ethyl)benzamide]
IC50 (AR 1.0 cells [1]; [5]): 50 nM | IC50 (AR 1.0 cells [3]; [7]): 15000 nM | Potentiation index (AR 1.0 cells [4]; measured at 0.01 μM): 1.4 | Potentiation index (AR 1.0 cells [4]; measured at 0.03 μM): 3.3 | Potentiation index (AR 1.0 cells [4]; measured at 0.1 μM): 10.0 | Potentiation index (AR 1.0 cells [4]; measured at 0.3 μM): 75.0

IC50 (AR 1.0 cells [2]; [6]): 7000 nM
Compound: Cn1c(=O)/c(=C/c2ccc(C(=O)N3CCN(c4ncccn4)CC3)cc2)[nH]c(=O)/c1=C/c1ccccc1 [Compound 9022, 1-(4-((3Z,6Z)-6-Benzylidene-1-methyl-2,5-dioxo-3-piperazinylidene)methylbenzoyl)-4-(2-pyrimidyl)piperazine]
IC50 (AR 1.0 cells [1]; [5]): 800 nM | IC50 (AR 1.0 cells [3]; [7]): 35000 nM | Potentiation index (AR 1.0 cells [4]; [8]): 5

IC50 (AR 1.0 cells [2]; [6]): 800 nM
Compound: COc1ccc(CCN(C)CCc2ccc(NC(=O)c3cccc(/C=c4\[nH]c(=O)/c(=C/c5ccccc5)n(C)c4=O)c3)cc2)cc1OC [Compound 9138]
IC50 (AR 1.0 cells [1]; [5]): 1000 nM | IC50 (AR 1.0 cells [3]; [7]): 8000 nM | Potentiation index (AR 1.0 cells [4]; [8]): 333

IC50 (AR 1.0 cells [2]; [6]): 5000 nM
Compound: Cl.Cn1c(=O)/c(=C/c2ccc(C(=O)Nc3ccc(CN4CCN(c5ccccc5)CC4)cc3)cc2)[nH]c(=O)/c1=C/c1ccccc1 [Compound 9104, N-(4-(4-Phenyl-1-piperazinyl)methylphenyl)-4-((3Z,6Z)-6-benzylidene-1-methyl-2,5-dioxo-3-piperazinylidene)methylbenzamide, hydrochloride]
IC50 (AR 1.0 cells [3]; [7]): 40000 nM | Potentiation index (AR 1.0 cells [4]; [8]): 17

Continued, molecule first:

Compound: COc1cc2c(cc1OC)CN(CCc1ccc(COc3ccc(/C=c4\[nH]c(=O)/c(=C/c5ccccc5)n(C)c4=O)cc3)cc1)CC2 [Compound 9176, (3Z,6Z)-6-Benzylidene-3-(4-(4-(2-(6,7-dimethoxy-1,2,3,4-tetrahydro-2-isoquinolyl)ethyl)benzyloxy)benzylidene)-1-methyl-2,5-piperazinedione]
IC50 (AR 1.0 cells [1]; [5]): 200 nM | IC50 (AR 1.0 cells [2]; [6]): 1000 nM | IC50 (AR 1.0 cells [3]; [7]): 10000 nM | Potentiation index (AR 1.0 cells [4]; [8]): 300.0

Compound: COc1cc2c(cc1OC)CN(CCc1ccc(NC(=O)c3cccc(/C=c4\[nH]c(=O)/c(=C/c5ccccc5)n(C)c4=O)c3)cc1)CC2.Cl [Compound 9051, N-(4-(2-(6,7-Dimethoxy-1,2,3,4-tetrahydro-2-isoquinolyl)ethyl)phenyl)-3-((3Z,6Z)-6-benzylidene-1-methyl-2,5-dioxo-3-piperazinylidene)methylbenzamide, hydrochloride]
IC50 (AR 1.0 cells [1]; [5]): 10 nM | IC50 (AR 1.0 cells [2]; 1 h): 150 nM | IC50 (AR 1.0 cells [3]): 2000 nM | Potentiation index (AR 1.0 cells [4]; [8]): 2000

Compound: COc1cc2c(cc1OC)CN(Cc1ccc(NC(=O)c3ccc(/C=c4\[nH]c(=O)/c(=C/c5ccccc5)n(C)c4=O)cc3)cc1)CC2.Cl [Compound 9064, N-(4-(6,7-Dimethoxy-1,2,3,4-tetrahydro-2-isoquinolyl)methylphenyl)-4-((3Z,6Z)-6-benzylidene-1-methyl-2,5-dioxo-3-piperazinylidene)methylbenzamide, hydrochloride]
IC50 (AR 1.0 cells [1]; [5]): 10 nM | IC50 (AR 1.0 cells [2]; [6]): 300 nM | IC50 (AR 1.0 cells [3]; [7]): 2000 nM | Potentiation index (AR 1.0 cells [4]; [8]): 750

Compound: COc1ccc(CCN(C)CCCC(C#N)(c2ccc(OC)c(OC)c2)C(C)C)cc1OC (stereo not drawn) [Verapamil]
sensitisation of MDR cells to Vinca alkaloids (MDR cells): shown to sensitise MDR cells to Vinca alkaloids in vitro and in vivo

Compound: COc1ccc(N2CCN(C(=O)c3ccc(/C=c4\[nH]c(=O)/c(=C/c5ccccc5)n(C)c4=O)cc3)CC2)cc1.Cl [Compound 9071, 1-(4-((3Z,6Z)-6-Benzylidene-1-methyl-2,5-dioxo-3-piperazinylidene)methylbenzoyl)-4-(4-methoxyphenyl)piperazine, hydrochloride]
IC50 (AR 1.0 cells [1]; [5]): 200 nM | IC50 (AR 1.0 cells [2]; [6]): 6000 nM | IC50 (AR 1.0 cells [3]; [7]): 6000 nM | Potentiation index (AR 1.0 cells [4]; [8]): 4

Compound: COc1cc2c(cc1OC)CN(CCc1ccc(COc3cccc(/C=c4\[nH]c(=O)/c(=C/c5ccccc5)n(C)c4=O)c3)cc1)CC2 [Compound 9177, (3Z,6Z)-6-Benzylidene-3-(3-(4-(2-(6,7-dimethoxy-1,2,3,4-tetrahydro-2-isoquinolyl)ethyl)benzyloxy)benzylidene)-1-methyl-2,5-piperazinedione]
IC50 (AR 1.0 cells [1]; [5]): 500 nM | IC50 (AR 1.0 cells [2]; [6]): 1750 nM | IC50 (AR 1.0 cells [3]; [7]): 15000 nM | Potentiation index (AR 1.0 cells [4]; [8]): 75.0

Compound: Cn1c(=O)/c(=C/c2ccc(C(=O)Nc3ccc(CCN4CCC(O)(c5ccc(Cl)cc5)CC4)cc3)cc2)[nH]c(=O)/c1=C/c1ccccc1 [Compound 9079, N-(4-(2-(4-(4-Chlorophenyl) -4-hydroxypiperidino)ethyl)phenyl)-4-((3Z,6Z)-6-benzylidene-1-methyl-2,5-dioxo-3-piperazinylidene)methylbenzamide]
IC50 (AR 1.0 cells [1]; ar 1.0 cells, 96 h): 1700 nM | IC50 (AR 1.0 cells [2]; [6]): 80000 nM | IC50 (AR 1.0 cells [3]; [7]): 2000 nM | Potentiation index (AR 1.0 cells [4]; [8]): 3

From patent publication US5935955A, “Pharmaceutical piperazine compounds” (Xenova Limited, priority 1994, dated 1999)
